Earlier results in patent US20110165241A1, “BAZEDOXIFENE FORMULATIONS WITH ANTIOXIDANTS” (Wyeth LLC, priority 2009, published 2011).

Experiments:
[1] = tested on: MCF-7 cell line (human breast cancer cell line)
uterine response = conditions: in vivo
[2] = tested on: ovariectomized rat model of osteopenia; conditions: in vivo

## Cc1c(-c2ccc(O)cc2)n(Cc2ccc(OCCN3CCCCCC3)cc2)c2ccc(O)cc12 [bazedoxifene, 1-[4-(2-azepan-1-yl-ethoxy)-benzyl]-2-(4-hydroxy-phenyl)-3-methyl-1H-indol-5-ol]
[1]
  estrogen receptor activity in MCF-7 cells: behaves as an estrogen antagonist
Uterine response
  stimulation of uterine response: little or no stimulation of uterine response
[2]
  effect on bone loss and cholesterol: estrogen agonist-like effect in preventing bone loss and reducing cholesterol
